# Numbers after ± are expanded uncertainties.
# Settings: 101.33 kPa, Liquid, hot wire
structure (smiles),measurement,setting,value
[Pb] [lead],thermal conductivity,620.3 K,16.2 ± 1 W/m/K
same,thermal conductivity,678.1 K,17 ± 1.1 W/m/K
same,thermal conductivity,729.5 K,17.6 ± 1.1 W/m/K

# From the NIST ThermoML archive (doi:10.1007/s10765-007-0182-2)
